Laboratory results from PMC6753139, “TRIM66 reads unmodified H3R2K4 and H3K56ac to respond to DNA damage in embryonic stem cells” (Nature Communications, 2019).
Where a chain is given by its changes, count along the chain named.

Legend:
[1] = biological target: T1, TRIM66-MUT968-1160 (Homo sapiens, UniProt O15016, C1161S/C1165S/C1270S/I1224T/L1137T/M1171K/V1273N/Y1166H); test: ITC, crystallization mutant protein; assay type: binding; settings: 25 °C, 20 mM Tris, 100 mM NaCl, pH 7.5, single measurement
T1 construct: contained residues 968 to 1160 with eight mutated residues; GST (N, cleaved yes); made in house; host or cells: Escherichia coli BL21 (DE3)
T1 sequence (O15016 1103-1295 L1137T/C1161S/C1165S/Y1166H/M1171K/I1224T/C1270S/V1273N): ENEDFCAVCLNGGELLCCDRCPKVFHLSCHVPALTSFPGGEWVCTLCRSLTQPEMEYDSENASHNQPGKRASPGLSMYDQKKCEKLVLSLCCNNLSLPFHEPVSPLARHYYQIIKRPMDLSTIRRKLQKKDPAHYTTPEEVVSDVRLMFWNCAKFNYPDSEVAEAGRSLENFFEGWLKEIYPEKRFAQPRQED
Protocol: The mutant protein of the TRIM66 PHD-Bromodomain used for the crystallographic study contained residues 968 to 1160 with eight mutated residues (L1002T, C1026S, C1030S, Y1031H, M1036K, I1089T, C1135S, and V1138N). The mutant protein was dialyzed using a buffer containing 20 mM Tris, 100 mM NaCl, and 5 mM DTT at pH 7.5 prior to the crystallographic study. The H3_1-12 peptide was dissolved in the same buffer and adjusted to pH 7.5 with a final concentration of 20 mM. Crystals of the free-state TRIM66-PHD-Bromo mutant were obtained by mixing 8 mg ml^−1 protein with an equal volume of crystallization buffer (30% w/v 5000 MME, 100 mM Tris base/hydrochloric acid pH 8.0, and 200 mM lithium sulfate) using the hanging drop vapor diffusion method at 20 °C. […]
The calorimetric experiments were performed at 25 °C using a MicroCal PEAQ-ITC. […] Peptide concentrations were estimated from the quantitative NMR experiments[73],[74]. […] The ITC data were subsequently analyzed using the MicroCal PEAQ-ITC analysis software. […]
combinational manner (Fig. 1d). To further figure out the binding mode between the TRIM66 PHD-Bromodomain and the united H3(1-15)-(48-57) K56ac peptide, we performed a NMR titration experiment and carefully analyzed the linewidth changes of TRIM66 -GSGS968-1160 (this protein is […]

[2] = biological target: T2, TRIM66 965-1160 D971A (Homo sapiens, UniProt O15016, D1106A); test: ITC, point mutant; settings: 25 °C, pH 7.5, Weak binding = ITC curves cannot be fitted reliably
T2 construct: GST (N, cleaved yes); made in house; host or cells: Escherichia coli BL21 (DE3)
T2 sequence (O15016 1100-1295 D1106A): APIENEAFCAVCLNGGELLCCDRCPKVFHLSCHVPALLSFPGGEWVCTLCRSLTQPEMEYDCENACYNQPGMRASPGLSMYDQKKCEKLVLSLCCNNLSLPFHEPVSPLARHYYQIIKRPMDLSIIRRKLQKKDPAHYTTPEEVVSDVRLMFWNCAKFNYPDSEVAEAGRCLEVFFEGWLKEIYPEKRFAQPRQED
Protocol: (§1) We further investigated the role of the TRIM66 PHD-Bromodomain in safeguarding the genome. We first introduced a series of single amino acid mutations to the PHD domain at interaction interface and then performed corresponding ITC assays.
(§2) The calorimetric experiments were performed at 25 °C using a MicroCal PEAQ-ITC. The proteins were dialyzed using a buffer containing 20 mM Tris and 100 mM NaCl at pH 7.5. Lyophilized peptides were dissolved in the same buffer and adjusted to pH 7.5 prior to use. Peptide concentrations were estimated from the quantitative NMR experiments[73],[74]. ITC measurements were performed via injection of 0.7–4 mM peptide into a cell containing 0.12 mM TRIM24-PHD-Bromo, 0.05 mM TRIM33 PHD-Bromo, and 0.05 or 0.11–0.15 mM TRIM66-PHD-Bromo (or its mutants). The ITC data were subsequently analyzed using the MicroCal PEAQ-ITC analysis software.

[3] = biological target: T3, TRIM66 965-1160 D986A (Homo sapiens, UniProt O15016, D1121A); test: ITC, point mutant; settings: 25 °C, pH 7.5, Weak binding = ITC curves cannot be fitted reliably
T3 construct: GST (N, cleaved yes); made in house; host or cells: Escherichia coli BL21 (DE3)
T3 sequence (O15016 1100-1295 D1121A): T2 sequence (O15016 1100-1295 D1106A) with A7D, D22A
Protocol: as §1, §2

Kd [1]: 19 ± 0.76 µM | KD [2]: Weak binding | KD [3]: Weak binding
Structure (SMILES): C[C@H](N)C(=O)N[C@@H](CCCNC(=N)N)C(=O)N[C@H](C(=O)N[C@@H](CCCCN)C(=O)N[C@@H](CCC(N)=O)C(=O)N[C@H](C(=O)N[C@@H](C)C(=O)N[C@@H](CCCNC(=N)N)C(=O)N[C@@H](CCCCN)C(=O)N[C@@H](CO)C(=O)N[C@H](C(=O)NCC(=O)O)[C@@H](C)O)[C@@H](C)O)[C@@H](C)O [H3_1-12]
